Experimental data as given in the supplement of paper PMC10733146.

Assays:
Test in all cases: viability relative to DMSO control (fraction); higher = less drug effect (more viable cells)
Settings in all cases: 48 h
[1] = system: primary MCL patient cells (S053)
Summary of the method: (§1)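 The cells were primary mononuclear tumour cells, either fresh or cryopreserved, isolated by Ficoll from blood or bone marrow or derived from processed lymph node. Each well of a 384-well plate received 4 × 10^4 cells onto compounds pre-plated at five concentrations, with one well per concentration. The medium was RPMI-1640 with penicillin/streptomycin, L-glutamine and human serum, and plates stood at 37 °C and 5% CO2 for 48 h. Viability is reported as CellTiter-Glo luminescence relative to the median of 16 inner DMSO wells.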

[2] = system: primary DLBCL patient cells (S082)
Summary of the method: as §1

[3] = system: primary T-PLL patient cells (S008)
Summary of the method: as §1

[4] = system: primary AML patient cells (S009)
Summary of the method: as §1

[5] = system: primary BL patient cells (S005)
Summary of the method: as §1

[6] = system: primary AML patient cells (S060)
Summary of the method: as §1

[7] = system: primary FL patient cells (S087)
Summary of the method: as §1

[8] = system: primary MCL patient cells (S068)
Summary of the method: as §1

[9] = system: primary ALL patient cells (S088)
Summary of the method: as §1

[10] = system: primary AML patient cells (S079)
Summary of the method: as §1

[11] = system: primary MCL patient cells (S063)
Summary of the method: as §1

[12] = system: primary FL patient cells (S022)
Summary of the method: as §1

[13] = system: primary B-PLL patient cells (S016)
Summary of the method: as §1

[14] = system: primary ALL patient cells (S048)
Summary of the method: as §1

[15] = system: primary CLL patient cells (S031)
Summary of the method: as §1

[16] = system: primary MCL patient cells (S041)
Summary of the method: as §1

[17] = system: primary AML patient cells (S072)
Summary of the method: as §1

[18] = system: primary AML patient cells (S071)
Summary of the method: as §1

[19] = system: primary AML patient cells (S056)
Summary of the method: as §1

SMILES: CCN1CCN(Cc2ccc(Nc3ncc(F)c(-c4cc(F)c5nc(C)n(C(C)C)c5c4)n3)nc2)CC1
- viability ([1]; 0.024 µM): 0.896
- viability ([1]; 0.12 µM): 0.737
- viability ([1]; 0.6 µM): 0.565
- viability ([1]; 3 µM): 0.144
- viability ([1]; 15 µM): 0.0105
- viability ([2]; 0.024 µM): 0.915
- viability ([2]; 0.12 µM): 1.01
- viability ([2]; 0.6 µM): 1.19
- viability ([2]; 3 µM): 0.543
- viability ([2]; 15 µM): 0.0123
- viability ([3]; 0.024 µM): 1.04
- viability ([3]; 0.12 µM): 0.981
- viability ([3]; 0.6 µM): 1.08
- viability ([3]; 3 µM): 0.415
- viability ([3]; 15 µM): 0.0352
- viability ([4]; 0.024 µM): 1.05
- viability ([4]; 0.12 µM): 0.955
- viability ([4]; 0.6 µM): 1.03
- viability ([4]; 3 µM): 0.451
- viability ([4]; 15 µM): 0.0338
- viability ([5]; 0.024 µM): 1.01
- viability ([5]; 0.12 µM): 1.61
- viability ([5]; 0.6 µM): 0.924
- viability ([5]; 3 µM): 0.725
- viability ([5]; 15 µM): 0.374
- viability ([6]; 0.024 µM): 1.08
- viability ([6]; 0.12 µM): 1.01
- viability ([6]; 0.6 µM): 0.946
- viability ([6]; 3 µM): 0.534
- viability ([6]; 15 µM): 0.112
- viability ([7]; 0.024 µM): 1.01
- viability ([7]; 0.12 µM): 0.934
- viability ([7]; 0.6 µM): 0.962
- viability ([7]; 3 µM): 0.763
- viability ([7]; 15 µM): 0.0109
- viability ([8]; 0.024 µM): 0.836
- viability ([8]; 0.12 µM): 0.934
- viability ([8]; 0.6 µM): 1.09
- viability ([8]; 3 µM): 0.0754
- viability ([8]; 15 µM): 0.0119
- viability ([9]; 0.024 µM): 0.616
- viability ([9]; 0.12 µM): 0.625
- viability ([9]; 0.6 µM): 0.517
- viability ([9]; 3 µM): 0.169
- viability ([9]; 15 µM): 0.012
- viability ([10]; 0.024 µM): 0.969
- viability ([10]; 0.12 µM): 1.07
- viability ([10]; 0.6 µM): 1.03
- viability ([10]; 3 µM): 0.598
- viability ([10]; 15 µM): 0.0143
- viability ([11]; 0.024 µM): 1.08
- viability ([11]; 0.12 µM): 0.99
- viability ([11]; 0.6 µM): 0.951
- viability ([11]; 3 µM): 0.605
- viability ([11]; 15 µM): 0.00904
- viability ([12]; 0.024 µM): 1.12
- viability ([12]; 0.12 µM): 1.01
- viability ([12]; 0.6 µM): 1.06
- viability ([12]; 3 µM): 0.616
- viability ([12]; 15 µM): 0.00982
- viability ([13]; 0.024 µM): 0.997
- viability ([13]; 0.12 µM): 1.09
- viability ([13]; 0.6 µM): 0.984
- viability ([13]; 3 µM): 0.505
- viability ([13]; 15 µM): 0.0112
- viability ([14]; 0.024 µM): 0.546
- viability ([14]; 0.12 µM): 0.443
- viability ([14]; 0.6 µM): 0.263
- viability ([14]; 3 µM): 0.0396
- viability ([14]; 15 µM): 0.00487
- viability ([15]; 0.024 µM): 0.841
- viability ([15]; 0.12 µM): 0.752
- viability ([15]; 0.6 µM): 0.771
- viability ([15]; 3 µM): 0.238
- viability ([15]; 15 µM): 0.00593
- viability ([16]; 0.024 µM): 0.938
- viability ([16]; 0.12 µM): 0.812
- viability ([16]; 0.6 µM): 0.757
- viability ([16]; 3 µM): 0.0785
- viability ([16]; 15 µM): 0.00539
- viability ([17]; 0.024 µM): 0.893
- viability ([17]; 0.12 µM): 1.03
- viability ([17]; 0.6 µM): 0.73
- viability ([17]; 3 µM): 0.251
- viability ([17]; 15 µM): 0.0132
- viability ([18]; 0.024 µM): 0.728
- viability ([18]; 0.12 µM): 0.533
- viability ([18]; 0.6 µM): 0.39
- viability ([18]; 3 µM): 0.0958
- viability ([18]; 15 µM): 0.0535
- viability ([19]; 0.024 µM): 0.703
- viability ([19]; 0.12 µM): 0.546
- viability ([19]; 0.6 µM): 0.444
- viability ([19]; 3 µM): 0.136
- viability ([19]; 15 µM): 0.0316
